Experiments:
[1] = test system: SW620 (CCL-227, ATCC) MSS colorectal carcinoma xenografts; assay: SW620 MSS CRC xenograft efficacy in nude mice; format: in vivo; settings: for effect on tumor growth of parental SW620 tumors: irinotecan 15 mg/kg i.v. once weekly, Compound A 120 mg/kg p.o. daily
Description: SW620 (CCL-227, ATCC) [MSS colorectal carcinoma (CRC)] was cultured in DMEM (#1-26F01-I, AMIMED) supplemented with 10% FCS (#2-0-1F30-I, BioConcept), 4 mM L-glutamine (#5-10K50-H, BioConcept) and 1 mM Sodium pyruvate (#5-60F00-H, BioConcept). Cells were passaged by washing first with Dulbecco's PBS without Ca^2+/Mg^2+ (#3-05F29-1, AMIMED), trypsinising cells with Trypsin 0.05% in PBS with EDTA (#5-51F00-H, AMIMED), centrifuging in the respective culture media, and splitting cells into fresh media at a ratio of 1:8, 2 times per week.
Athymic nude mice (Charles River, Germany) were allowed to adapt for 7 days upon arrival at the animal facility and housed in a pathogen-controlled environment (5 mice/Type III cage) with access to food and water ad libitum. Animals were identified with transponders. Studies described in this report were performed according to procedures covered by a permit number issued by the Kantonales Veterinäramt Basel-Stadt.
Subcutaneous tumors were initiated by injecting 5.0×10^6 SW620 tumor cells in 50% Matrigel (#354234, Corning) in HBSS (#H6648, SIGMA) in the right flank of nude mice. The efficacy experiment (n=6), started 11 days post-cell injection.
Compound A and Temozolomide were made-up fresh on a weekly basis and kept at 4° C. and protected from light. Compound A was dissolved in 20% Hydroxypropyl-ß-Cyclodextrine (HP-ß-CD, #H107-100G, SIGMA) in UltraPure™ Water (#10977-035, Invitrogen) and administered p.o. at 10 ml/kg. Temozolomide was dissolved in 30% PEG-400 (#202398-500G, SIGMA) and 70% Dulbecco's PBS without Ca^2+/Mg^2+ (#3-05F29-1, AMIMED) and administered p.o. at 10 mL/kg on 5 consecutive days within a 21 days cycle. Irinotecan was made-up fresh for each treatment once a week by diluting with NaCl 0.9% (#3-06S00-I, BioConcept). The solution was administered i.v. at 5 mL/kg.
Tumor volumes (TVol), determined from caliper measurements (using the formula I*w2*π/6) were measured two times per week. Tumor response was quantified by the change in tumor volume (endpoint minus starting value in mm^3) as the T/C (the ratio between the tumor volume in the treated group and in the untreated control group). In the case of a tumor regression or to assess the percentage of change in TVol, the tumor response was quantified by the percentage of regression of the starting TVol. The body-weight (BW) of the animal was measured three times per week allowing calculation at any particular time-point relative to the day of initiation of treatment (day 0) of the percentage change in BW (4% BW).
At day 43 post-cell injection, irinotecan was administered intravenously at 15 mg/kg once weekly for 7 weeks in combination with Compound A, also administered from day 43, orally at 120 mg/kg daily for 52 days.
Starting 11 days post-cell injection, temozolomide was administered orally on a 21 day cycle of 5 consecutive days at 100 mg/kg on 5 consecutive days (day 11 to day 15 and day 32 to day 36). At day 43 post-cell injection, to the first group irinotecan was administered intravenously at 15 mg/kg once weekly for 6 weeks, and to the second group irinotecan was administered intravenously at 15 mg/kg once weekly for 6 weeks in combination with Compound A, also administered from day 43, orally at 120 mg/kg daily for 46 days.

[2] = test system: SW48 colorectal carcinoma cells; assay: SW48 xenograft efficacy in nude mice; format: in vivo; settings: for effect on tumor growth: irinotecan 60 mg/kg i.v. weekly
Description: All animals were allowed to adapt for 7 days and housed in a pathogen-controlled environment (5 mice/Type III cage) with access to food and water ad libitum and were identified with transponders.
5.0×10^6 SW48 colorectal carcinoma cells were implanted subcutaneously in nude mice (Charles River, Germany). Treatment was initiated when tumors reached 150-200 mm^3 volume. Efficacy studies and tumor response were measured as above.

[3] = Example 12, Compound A 40 mg/kg p.o. qd, trametinib 0.3 mg/kg p.o. qd
[4] = Example 18, Compound A 20 mg/kg p.o. qd

| SMILES | outcome after stopping temozolomide and irinotecan on day 129 ([1]; SW620, all treatments stopped vs still treated with compound A only) | effect on tumor growth of parental SW620 tumors [1] | duration of response / relapse [2, 3] | tumor regression [2, 3] | tumor regression ([2]; Example 15, Compound A 20 mg/kg p.o. qd, BAY-1895344 50 mg/kg p.o. twice a day, 3 days on/4 off) | duration of response / relapse ([2]; Example 15, Compound A 20 mg/kg, BAY-1895344 50 mg/kg) | effect on tumor growth [2, 4] | duration of response / relapse ([2]; Example 18, Compound A 20 mg/kg, irinotecan 60 mg/kg) | relapse of TMZ pre-treated SW620 tumors ([1]; after 2 cycles TMZ, treatment from day 43) |
| --- | --- | --- | --- | --- | --- | --- | --- | --- | --- |
| CCc1c(N2CCN(C(=O)c3ncnc(C)c3O)CC2)c(=O)n2nc(C3=CCOCC3)nc2n1CC(=O)Nc1ccc(C(F)(F)F)cc1Cl [Compound A] | remained below 50% tumor regression | delay of the tumor growth | for 30 days followed by relapse in all tumor-bearing mice | 40% | 15% | for 30 days followed by relapse in all tumor-bearing mice | stable disease | for 21 days followed by a relapse in all tumor-bearing mice | – |
| CCc1c2c(nc3ccc(OC(=O)N4CCC(N5CCCCC5)CC4)cc13)-c1cc3c(c(=O)n1C2)COC(=O)[C@]3(O)CC [irinotecan] | – | delay of the tumor growth | – | – | – | – | no effect | – | the tumors relapsed |
